Test results taken from EP1072948B1, “Thermally processed image recording material” (FUJIFILM Corporation, priority 1999, dated 2001).

How the values were obtained:
[1] = Example 1: image storage stability 2 (developed material stored under light irradiation); settings: 24 hours, 10,000 luces, relative humidity 50%
Method: (§1) After each thermally processed image recording material was light-exposed by a laser sensitometer (details are given below), the thermally processed image recording material was treated at 118°C for 5 seconds and then treated at 122°C for 16 seconds (heat development).
(§2) The evaluation of the image obtained was performed by using a Macbeth TD904 densitometer (visible density). The measurement results were evaluated as Dmin, sensitivity (evaluated by a relative value of a reciprocal of a ratio of exposure amounts giving a density higher than Dmin by 1.0, and the sensitivity of the thermally processed image recording material of Experiment No. 1 shown in Table 1 below was defined as 100), Dmax, and gradation (contrast) (fresh photographic properties). The contrast was expressed by a gradient of a straight line connecting the points at the densities from which the value for Dmin was subtracted, 0.5 and 1.5, with the abscissa being a logarithm of the exposure amount.

[2] = Example 2: image storage stability 1 (developed material stored in the dark); settings: 24 hours, relative humidity 50%
Method: (§3) Each light-exposed thermally processed image recording material was heat-developed by using a heat-developing apparatus as shown in Fig.1. The roller surface material of the heat development section was composed of silicone rubber, and the flat surface consisted of Teflon non-woven fabric. The heat development was performed at a transportation linear speed of 20 mm/second and a temperature of 90-110°C in the preheating section for 15 seconds (driving units of the preheating section and the heat development section were independent from each other, and speed difference as to the heat development section was adjusted to -0.5% to -1%), and 120°C for 20 seconds in the heat development section, and for 15 seconds in the gradual cooling section. The temperature precision as for the transverse direction was ±1°C.
as §2, with “0.3” for “0.5”

[3] = Example 2: image storage stability 2 (developed material stored under light irradiation); settings: 24 hours, 10,000 luces, relative humidity 50%
Method: as §3
as §2, with “0.3” for “0.5”

[4] = Example 1: image storage stability 1 (developed material stored in the dark); settings: 24 hours, relative humidity 50%
Method: as §1, §2

| Structure (SMILES) | Image storage stability-2 (stored in light, 40°C, 50%) Dmax ([1]; Table 1, 1.6×10^-1 mol/mol-Ag) | Image storage stability-2 (stored in light, 40°C, 50%) Dmin ([1]; Table 1, 1.6×10^-1 mol/mol-Ag) | Image storage stability-1 (stored in dark, 60°C, 50%) Dmax ([2]; Table 3, 8×10^-2 mol/mol-Ag) | Image storage stability-1 (stored in dark, 60°C, 50%) Dmin ([2]; Table 3, 8×10^-2 mol/mol-Ag) | Image storage stability-2 (stored in light, 40°C, 50%) Dmax ([3]; Table 3, 8×10^-2 mol/mol-Ag) | Image storage stability-2 (stored in light, 40°C, 50%) Dmin ([3]; Table 3, 8×10^-2 mol/mol-Ag) | Image storage stability-1 (stored in dark, 60°C, 50%) Dmax ([4]; Table 1, 1.6×10^-1 mol/mol-Ag) | Image storage stability-1 (stored in dark, 60°C, 50%) Dmin ([4]; Table 1, 1.6×10^-1 mol/mol-Ag) | Image storage stability-2 (stored in light, 40°C, 50%) Dmax ([1]; Table 2, 1.6×10^-1 mol/mol-Ag) | Image storage stability-2 (stored in light, 40°C, 50%) Dmin ([1]; Table 2, 1.6×10^-1 mol/mol-Ag) | Image storage stability-1 (stored in dark, 60°C, 50%) Dmax ([2]; Table 4, 8×10^-2 mol/mol-Ag) | Image storage stability-1 (stored in dark, 60°C, 50%) Dmin ([2]; Table 4, 8×10^-2 mol/mol-Ag) | Image storage stability-2 (stored in light, 40°C, 50%) Dmax ([3]; Table 4, 8×10^-2 mol/mol-Ag) | Image storage stability-2 (stored in light, 40°C, 50%) Dmin ([3]; Table 4, 8×10^-2 mol/mol-Ag) | Image storage stability-1 (stored in dark, 60°C, 50%) Dmax ([4]; Table 2, 1.6×10^-1 mol/mol-Ag) | Image storage stability-1 (stored in dark, 60°C, 50%) Dmin ([4]; Table 2, 1.6×10^-1 mol/mol-Ag) |
| --- | --- | --- | --- | --- | --- | --- | --- | --- | --- | --- | --- | --- | --- | --- | --- | --- |
| CCCCCCOCCN(CC)C(=O)c1cccc(S(=O)(=O)C(Br)(Br)Br)c1 [Comparative Compound 1] | 2.5 | 0.17 | 2.7 | 0.08 | 3.2 | 0.08 | 2.1 | 0.17 |  |  |  |  |  |  |  |  |
| CCNC(=O)c1ccccc1S(=O)(=O)C(Br)(Br)Br [Comparative Compound 3] | 3.0 | 0.25 | 4.1 | 0.35 | 4.1 | 0.15 | 2.9 | 0.41 |  |  |  |  |  |  |  |  |
| CCCCCCCCCCCCCCCCNC(=O)c1cccc(S(=O)(=O)C(Br)(Br)Br)c1 [Comparative Compound (1)] |  |  |  |  |  |  |  |  | 2.8 | 0.43 | 3.6 | 0.35 | 3.4 | 0.22 | 2.8 | 0.54 |
| O=C(c1cccc(S(=O)(=O)C(Br)(Br)Br)c1)N1CCCC1 [Comparative Compound (3)] |  |  |  |  |  |  |  |  | 3.0 | 0.40 | 3.6 | 0.44 | 3.6 | 0.23 | 2.9 | 0.42 |
| CCCCCCCCN(CCCCCCCC)S(=O)(=O)c1ccc(S(=O)(=O)C(Br)(Br)Br)cc1 [Comparative Compound (4)] |  |  |  |  |  |  |  |  | 2.9 | 0.47 | 3.7 | 0.39 | 3.6 | 0.25 | 2.8 | 0.59 |
| CCCCCCCCCCCCN(CCCCCCCCCCCC)C(=O)c1cc(S(C)(=O)=O)ccc1S(=O)(=O)C(Br)(Br)Br [Comparative Compound (5)] |  |  |  |  |  |  |  |  | 2.9 | 0.50 | 3.7 | 0.43 | 3.7 | 0.29 | 2.8 | 0.60 |
| CCOCCNC(=O)c1cccc(S(=O)(=O)C(Br)(Br)Br)c1 [P'-1] |  |  |  |  |  |  |  |  | 3.0 | 0.17 | 3.9 | 0.09 | 4.0 | 0.08 | 3.0 | 0.18 |
| CCCCOCCCNC(=O)c1cccc(S(=O)(=O)C(Br)(Br)Br)c1 [P'-15] |  |  |  |  |  |  |  |  | 3.0 | 0.17 | 3.9 | 0.09 | 4.0 | 0.07 | 3.0 | 0.18 |
| CCC(CC)NC(=O)c1cccc(S(=O)(=O)C(Br)(Br)Br)c1 [P'-18] |  |  |  |  |  |  |  |  | 3.0 | 0.17 | 3.9 | 0.09 | 4.0 | 0.08 | 3.0 | 0.17 |
| CCCC(C)NC(=O)c1cccc(S(=O)(=O)C(Br)(Br)Br)c1 (centres unmarked) [P'-20] |  |  |  |  |  |  |  |  | 3.0 | 0.17 | 3.9 | 0.09 | 4.0 | 0.07 | 3.0 | 0.17 |
| COCCCNC(=O)c1cccc(S(=O)(=O)C(Br)(Br)Br)c1 [P-11] | 3.0 | 0.17 | 3.9 | 0.09 | 4.0 | 0.08 | 2.9 | 0.17 |  |  |  |  |  |  |  |  |
| CCCCNS(=O)(=O)c1cccc(S(=O)(=O)C(Br)(Br)Br)c1 [P-18] | 3.0 | 0.20 |  |  |  |  | 3.0 | 0.20 |  |  |  |  |  |  |  |  |
